Experimental data as given in patent US20240301319A1, “PERFUMING COMPOSITIONS” (FIRMNICH SA, priority 2017, published 2024).
“And” between values parts separate entries of the source, which are not always exact repeats. Equal entries are not always repeated. Blank lines part the entries; values can stand above or below the molecule they belong to.

Key:
[1] = Volatility of perfuming compounds (Tables 4 to 10), with top/middle/bottom note type; format: physicochemical
Procedure, shortened: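 Volatility is expressed in μg/l in air. Top notes are 70,000 to 100 μg/l, middle notes 99 to 50 μg/l, and bottom notes 49 to 0.1 μg/l. Compounds are grouped by olfactive family: watery, green, fruity, citrus, sweet, gourmand and woody.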

[2] = Log P (n-octanol/water) of perfuming compounds (Tables 4 to 10)
[3] = Odor threshold and odor value of perfuming compounds (Tables 4 to 10)
[4] = Table 6, perfuming compounds having a fruity note
[5] = Table 6, perfuming compounds having a fruity note, note type by volatility
[6] = Table 10, perfuming compounds having a woody note, note type by volatility
[7] = note type (Top/Middle/Bottom) by volatility, perfuming compounds having a green note
[8] = perfuming compounds having a green note
[9] = n-octanol/water, perfuming compounds having a green note
[10] = Table 8, perfuming compounds having a sweet note
[11] = Table 7, citrus note, top, middle or bottom note
[12] = Table 7, citrus note, equals volatility divided by odor threshold
[13] = Table 4, watery note, top, middle or bottom note
[14] = Table 4, watery note, equals volatility divided by odor threshold

Molecule: CC(OC=O)C1CCCC(C)(C)C1 (stereo not shown)
Volatility [1, 4]: 1129.46 μg/l air
Type [1, 5]: TOP (perfuming compounds having a volatility ranging from 70,000 to 100 μg/l in air are referred to as “top notes”)
Log P (n-octanol/water) [2, 4]: 4.01

Molecule: CCC(C)C1(C)COC(C2CCC(C)=CC2C)OC1 (stereo not shown)
Type [1, 6]: Bottom
Volatility ([1]; Table 10, woody note): 3.82 μg/l air
Odor Threshold ([3]; Table 10, woody note): 1.67E−03 μg/l air
Log P (n-octanol/water) ([2]; Table 10, woody note): 6.50

Molecule: Cc1ccc(OCC=O)cc1
Type [1, 7]: Middle
Volatility (μg/l air) [1, 8]: 89.41 μg/l air
Odor Threshold (μg/l air) [3, 8]: 6.46E−05 μg/l air
Log P (n-octanol/water) [2, 9]: 1.99

Molecule: C=C(C)[C@@H]1CC=C(CO)CC1
Type [1, 7]: Bottom
Volatility (μg/l air) [1, 8]: 33.78 μg/l air
Odor Threshold (μg/l air) [3, 8]: 2.07E−02 μg/l air
Log P (n-octanol/water) [2, 9]: 2.68

Molecule: COC(=O)OC1CC/C=C\CCC1 (racemic)
Type [1, 7]: Top
Volatility (μg/l air) [1, 8]: 278.83 μg/l air
Odor Threshold (μg/l air) [3, 8]: 3.69E−04 μg/l air
Log P (n-octanol/water) [2, 9]: 3.02

Molecule: C=CC(CCCCC)OC(C)=O (racemic) [(+−)-1-PENTYL-2-PROPENYL ACETATE]
Volatility [1, 4]: 1506.95 μg/l air
Type [1, 5]: TOP (perfuming compounds having a volatility ranging from 70,000 to 100 μg/l in air are referred to as “top notes”)
Log P (n-octanol/water) [2, 4]: 3.79

Molecule: CCC(C)C(=O)OCCc1ccccc1 (racemic) [(+−)-2-PHENYLETHYL 2-METHYLBUTANOATE]
Volatility [1, 4]: 37.73 μg/l air
Type [1, 5]: Bottom
Odor Threshold [3, 4]: 8.56E−03 μg/l air
Odor Value [3, 4]: 4.41E+03
Log P (n-octanol/water) [2, 4]: 3.64

Molecule: CC(=O)C(C)O (racemic) [(+−)-3-HYDROXY-2-BUTANONE]
Volatility [1, 10]: 33382.87 μg/l air
Type ([1]; Table 8, perfuming compounds having a sweet note, note type by volatility): Top
Volatility ([1]; Table 9, gourmand note): 33382.87 μg/l air
Type ([1]; Table 9, perfuming compounds having a gourmand note, note type by volatility): Top
Type [1, 7]: Top
Volatility (μg/l air) [1, 8]: 33382.87 μg/l air
Odor Threshold [3, 10]: 1.46E−02 μg/l air
Odor Value [3, 10]: 2.28E+06
Odor Threshold ([3]; Table 9, gourmand note): 1.46E−02 μg/l air
Odor Threshold (μg/l air) [3, 8]: 1.46E−02 μg/l air
Log P (n-octanol/water) [2, 10]: −1.03
Log P (n-octanol/water) ([2]; Table 9, gourmand note): −1.03
Log P (n-octanol/water) [2, 9]: −1.03

Molecule: CC(CC=O)c1ccccc1 (racemic) [(+−)-3-PHENYLBUTANAL]
Type [1, 7]: Top
Volatility (μg/l air) [1, 8]: 227.83 μg/l air
Odor Threshold (μg/l air) [3, 8]: 3.89E−04 μg/l air
Log P (n-octanol/water) [2, 9]: 2.34

Molecule: (A) + (+−)-3,5,6,6-tetramethyl-4-methylidene-2-heptanone (B) + (+−)-(4E)-3,4,5,6,6-pentamethyl-4-hepten-2-one (C) + (+−)-(3Z)-3,4,5,6,6-pentamethyl-3-hepten-2-one (D) + (+−)-(3E)-3,4,5,6,6-pentamethyl-3-hepten-2-one (E)
Volatility (μg/l air) ([1]; Table 7, citrus note): 659.22 μg/l air
Type [1, 11]: Top
Odor Threshold (μg/l air) ([3]; Table 7, citrus note): 7.24E−02 μg/l air
Odor Value [3, 12]: 9.11E+03

Molecule: (Z)-3,7-DIMETHYL-1,6-NONADIEN-3-OL (A) + (E)-3,7-DIMETHYL-1,6-NONADIEN-3-OL (B)
Volatility (μg/l air) ([1]; Table 7, citrus note): 283.43 μg/l air
Type [1, 11]: Top
Odor Threshold (μg/l air) ([3]; Table 7, citrus note): 1.38E−03 μg/l air
Odor Value [3, 12]: 2.05E+05

Molecule: ALLYL (3-METHYLBUTOXY)ACETATE (A) + (+−)-ALLYL (2-METHYLBUTOXY)ACETATE (B)
Volatility (μg/l air) ([1]; Table 7, citrus note): 261.90 μg/l air
Type [1, 11]: Top
Odor Threshold (μg/l air) ([3]; Table 7, citrus note): 9.89E−05 μg/l air
Odor Value [3, 12]: 2.65E+06

Continued, in another order:

Type [1, 6]: Middle
Volatility ([1]; Table 10, woody note): 91.38 μg/l air
Log P (n-octanol/water) [2, 4]: 3.33
Log P (n-octanol/water) ([2]; Table 10, woody note): 3.33
Molecule: C/C=C/C(=O)C1=C(C)C=CCC1(C)C
Odor Threshold ([3]; Table 10, woody note): 3.00E−06 μg/l air

Volatility [1, 4]: 470.00 μg/l air
Log P (n-octanol/water) [2, 4]: 1.42
Molecule: CC(O)c1ccccc1 (stereo not shown) [1-PHENYL-1-ETHANOL]
Type [1, 5]: TOP (perfuming compounds having a volatility ranging from 70,000 to 100 μg/l in air are referred to as “top notes”)

Log P (n-octanol/water) [2, 9]: 3.40 and 3.53
Molecule: Cc1ccc2c(c1)OCC(=O)CO2 [7-methyl-2H-1,5-benzodioxepin-3(4H)-one]

Volatility (μg/l air) ([1]; Table 7, citrus note): 99.84 μg/l air
Type [1, 11]: Middle
Molecule: (2RS,4SR)-4-methyl-2-phenyltetrahydro-2H-pyran (A) + (2RS,4RS)-4-methyl-2-phenyltetrahydro-2H-pyran (B)
Odor Threshold (μg/l air) ([3]; Table 7, citrus note): 1.04E−03 μg/l air
Odor Value [3, 12]: 9.61E+04

Volatility (μg/l air) ([1]; Table 7, citrus note): 990.87 μg/l air
Type [1, 11]: Top
Molecule: (3Z)-1,3-undecadien-5-yne (A) + (3E)-1,3-undecadien-5-yne (B)
Odor Threshold (μg/l air) ([3]; Table 7, citrus note): 3.32E−03 μg/l air
Odor Value [3, 12]: 2.98E+05

Volatility (μg/l air) ([1]; Table 4, watery note): 0.70 μg/l air
Molecule: (+−)-3-(4-hydroxy-4-methylpentyl)-3-cyclohexene-1-carbaldehyde (A) + (+−)-4-(4-hydroxy-4-methylpentyl)-3-cyclohexene-1-carbaldehyde (B)
Type [1, 13]: bottom (perfuming compounds having a volatility ranging from 49 to 0.1 μg/l in air are referred to as “bottom notes”)
Odor Threshold (μg/l air) ([3]; Table 4, watery note): 8.81E−05 μg/l air
Odor Value [3, 14]: 7.92E+03

Volatility (μg/l air) ([1]; Table 4, watery note): 21.54 μg/l air
Molecule: (+−)-3-(4-methyl-3-penten-1-yl)-3-cyclohexene-1-carbaldehyde (A) + (+−)-4-(4-methyl-3-penten-1-yl)-3-cyclohexene-1-carbaldehyde (B)
Type [1, 13]: bottom (perfuming compounds having a volatility ranging from 49 to 0.1 μg/l in air are referred to as “bottom notes”)
Odor Threshold (μg/l air) ([3]; Table 4, watery note): 3.68E−03 μg/l air
Odor Value [3, 14]: 5.85E+03

Volatility (μg/l air) ([1]; Table 7, citrus note): 202.66 μg/l air
Type [1, 11]: Top
Molecule: (Z)-3,7-DIMETHYL-2,6-OCTADIENAL (A) + (E)-3,7-DIMETHYL-2,6-OCTADIENAL (B)
Odor Threshold (μg/l air) ([3]; Table 7, citrus note): 4.12E−03 μg/l air
Odor Value [3, 12]: 4.92E+04

Type [1, 7]: Top
Volatility (μg/l air) [1, 8]: 33722.60 μg/l air
Molecule: (−)-(1S)-2,6,6-TRIMETHYL-BICYCLO[3.1.1]HEPT-2-ENE
Odor Threshold (μg/l air) [3, 8]: 1.02E−01 μg/l air

Volatility (μg/l air) ([1]; Table 7, citrus note): 89.88 μg/l air
Type [1, 11]: Middle
Molecule: CITRONELLOL (A) + GERANIOL (B)
Odor Threshold (μg/l air) ([3]; Table 7, citrus note): 7.69E−04 μg/l air

Volatility (μg/l air) ([1]; Table 7, citrus note): 35.82 μg/l air
Type [1, 11]: Bottom
Molecule: TRICYCLO[5.2.1.0(2,6)]DEC-3-EN-8-YL PROPANOATE (A) + TRICYCLO[5.2.1.0(2,6)]DEC-4-EN-8-YL PROPANOATE (B)
Odor Threshold (μg/l air) ([3]; Table 7, citrus note): 2.44E−04 μg/l air
Odor Value [3, 12]: 1.47E+05

Volatility (μg/l air) ([1]; Table 7, citrus note): 291.85 μg/l air
Type [1, 11]: Top
Molecule: cis-4-(2-methyl-2-propanyl)cyclohexyl acetate (A) + trans-4-(2-methyl-2-propanyl)cyclohexyl acetate (B)
Odor Threshold (μg/l air) ([3]; Table 7, citrus note): 5.43E−02 μg/l air
Odor Value [3, 12]: 5.37E+03

Volatility (μg/l air) ([1]; Table 7, citrus note): 96.53 μg/l air
Type [1, 11]: Middle
Molecule: tricyclo[5.2.1.0~2,6~]dec-3-en-8-yl acetate (A) + tricyclo[5.2.1.0~2,6~]dec-4-en-8-yl acetate (B)
Odor Threshold (μg/l air) ([3]; Table 7, citrus note): 7.19E−04 μg/l air
Odor Value [3, 12]: 1.34E+05
